Measurements reported in patent publication US4891432A, “Phenoxy imidazole compound” (Yamanouchi Pharmaceutical Co., Ltd., priority 1986, dated 1990).
Where two headings read alike, the source gives them in different places.

Tests used:
[1] = system: mouse leukemia L1210 cells; assay: Effectiveness against mouse leukemia L1210 cells (in vitro test), cytotoxicity by trypan blue dye exclusion; assay type: cell-based; conditions: L1210 cells, 3 days, 37° C., read-out: IC50 (mean dose producing 50%-killing of tumor cells)
Experimental: Effectiveness against mouse leukemia L1210 cells (in vitro test)
A suspension of cells in culture medium was transferred into wells in a microplate in an amount of 1×10^5 L1210-cells/well. Test sample diluted with a culture medium was added to the suspension in each well, and the mixture was incubated on the medium at 37° C. for 3 days in an atmosphere of air containing 5% carbon dioxide.
Thereafter, the incubated cells were recovered from the microplate and the number of live cells was counted by the dye exclusion test using a 0.5% solution of trypan blue and by using a hemocytometer.

Ehrlich solid tumor = assay: Test 2: Anti-tumor test against Ehrlich solid tumor; assay type: in vivo, ddY/SLC mice; conditions: i.p., days 1 through 9, tumor weight day 21; for inhibition in vivo at 100 mg/kg / inhibition in vivo at 50 mg/kg: Mus musculus, Ehrlich, ip, 504 h, read-out: Growth Inhibition Rate
Experimental: Anti-tumor test against Ehrlich solid tumor
Ehrlich tumor cells, 2×10^6, on Day 7 after intraperitoneal transplantation to ddY/SLC mice, were subcutaneously transplanted in the left abdomen of ddY/SLC mice (5week age, male)--10 to a group. The active component was intraperitoneally administered in a definite dose 24 hours after the transplantation. (administration: once per one day; 1 through 9 days)
Growth inhibition rate (%)=(C-T)/C×100
T: mean tumor weight in the active component-administered group
c: mean tumor weight in the control group

Molecule | IC50 ([1]; Mus musculus, 72 h) | inhibition in vivo at 100 mg/kg (Ehrlich solid tumor; 100 mg/kg) | also measured
6-[3-[6-[5-(1-imidazolyl]pyridadyloxy]]-2,2-dimethylhexanoic acid ethyl ester [Example 60] |  |  | IC50 [1]: 3.7 µM; Growth Inhibition Rate (Ehrlich solid tumor; 50 mg/kg): 40.5%
6[p-[5-(1-imidazolyl)pentyloxy]phenoxy]-2,2-dimethylhexaneheptylamide [Example 61] |  |  | IC50 [1]: 5.9 µM; Growth Inhibition Rate (Ehrlich solid tumor; 100 mg/kg): 38.9%
CC(C)(CCCCOc1ccc(OCCCCCn2ccnc2)cc1)C(N)=O [Example 1, 6-[p-[5-(1-imidazol-yl)pentyloxy]phenoxy]-2,2-dimethylhexanamide] | 7.2 µM | 68.5% | 
CC(C)NC(=O)C(C)(C)CCCCOc1ccc(OCCCCCn2ccnc2)cc1 [Example 2] | 7.5 µM |  | inhibition in vivo at 50 mg/kg (Ehrlich solid tumor; 50 mg/kg): 52.9%
CC(C)(CCCCOc1ccc(OCCCCCn2ccnc2)cc1)C(=O)NCc1ccccc1 [Example 3] | 4 µM |  | inhibition in vivo at 50 mg/kg (Ehrlich solid tumor; 50 mg/kg): 58.5%
CC(C)(CCCCOc1ccc(OCCCCCn2cccn2)cc1)C(N)=O [Example 4] | 4.9 µM | 50.1% | 
CC(C)(CCCCOc1ccc(OCCCCCn2ccnc2)cc1)C(=O)OCc1ccccc1 [Example 5, benzyl 6-[p-[5-(1-imidazolyl)pentyloxy]phenoxy]-2,2-dimethylhexanoate] | 6.3 µM | 39.3% | 
CC(C)(C)OC(=O)C(C)(C)CCCCOc1ccc(OCCCCCn2ccnc2)cc1 [Example 6] | 6.8 µM | 43.8% | 
CCCCCCCCCOc1ccc(OCCCCCn2ccnc2)cc1 [Example 7, [p-[5-(1-imidazolyl)pentyloxy]phenoxy]nonane] | 11 µM | 45% | 
OCCCCCCOc1ccc(OCCCCCn2ccnc2)cc1 [Example 9] | 12 µM | 30.7% | 
CCOC(=O)COc1ccc(OCCCCCn2ccnc2)cc1 [Example 10, ethyl p-[5-(1-imidazol-yl)pentyloxy]phenoxyacetate] |  | 23.7% | 
COc1ccc(OCCCCCn2ccnc2)cc1 [Example 11, 1-[5-(1-imidazolyl)pentyloxy]-4-methoxybenzene] | 40 µM | 33.4% | 
COC(=O)CCCCC(=O)Oc1ccc(OCCCCCn2ccnc2)cc1 [Example 12] | 8.5 µM |  | 
CCOC(=O)C(C)(C)CCCCOc1ccc(OCCCCCOCc2cccnc2)cc1 [Example 13, ethyl 6-[p-[5-(3-pyridylmethyloxy)pentyloxy]phenoxy]-2,2-dimethylhexanoate] | 7.6 µM |  | 
CCOC(=O)C(C)(C)CCCCOc1ccc(OCCCCCOc2cccnc2)cc1 [Example 14] | 4.2 µM |  | 
CCOC(=O)C(C)(C)CCCCOc1ccc(OCCCCCn2cccc2)cc1 [Example 15] | 28.9 µM | 38.8% | 
CCOC(=O)C(C)(C)CCCCOc1ccc(OCCCCCn2cccn2)cc1 [Example 16] | 8.2 µM | 42.2% | 
CCOC(=O)C(C)(C)CCCCOc1ccc(OCCCCCOCc2ccccn2)cc1 [Example 17] | 13.7 µM |  | inhibition in vivo at 50 mg/kg (Ehrlich solid tumor; 50 mg/kg): 36.6%
CCOC(=O)C(C)(C)CCCCOc1ccc(OCCCCCOCCc2ccccn2)cc1 [Example 18] | 9.5 µM | 34.9% | 
CCOC(=O)C(C)(C)CCCCOc1ccc(OCCCCCSc2ccncc2)cc1 [Example 19, ethyl 6-[p-[5-(4-pyridylmercapto)pentyloxy]phenoxy]-2,2-dimethylhexanoate] | 5.7 µM | 47.6% | 
CCOC(=O)C(C)(C)CCCCOc1ccc(OCCCCCSc2nccn2C)cc1 [Example 20] | 8.2 µM | 52.8% | 
CCOC(=O)C(C)(C)CCCCOc1ccc(OCCCCCSc2nnnn2C)cc1 [Example 22, ethyl 6-[p-[5-(1-methyl-5-tetrazolylmercapto)pentyloxy]phenoxy]-2,2-dimethylhexanoate] | 6.7 µM | 40.2% | 

Molecule | IC50 ([1]; Mus musculus, 72 h) | inhibition in vivo at 100 mg/kg (Ehrlich solid tumor; 100 mg/kg) | also measured
CCOC(=O)C(C)(C)CCCCOc1ccc(OCCCCCSc2cccc[n+]2[O-])cc1 [Example 23] | 6.1 µM |  | 
CCOC(=O)C(C)(C)CCCCOc1ccc(OCCCCCSc2ncccn2)cc1 [Example 24, ethyl 6-[p-[5-(2-pyrimidylthio)pentyloxy]phenoxy]-2,2-dimethylhexanoate] | 20.6 µM | 31.7% | 
CCOC(=O)C(C)(C)CCCCOc1ccc(OCCCCCSC2=NCCS2)cc1 [Example 25] | 23.5 µM |  | 
CCOC(=O)C(C)(C)CCCCOc1ccc(OCCCCCSc2nc3ccccc3s2)cc1 [Example 26] | 42.7 µM | 30% | 
CCOC(=O)C(C)(C)CCCCOc1ccc(OCCCCCSc2nc3ccccc3[nH]2)cc1 [Example 27] | 4.2 µM |  | 
CCOC(=O)C(C)(C)CCCCOc1ccc(OCCCCCSc2nccc(O)n2)cc1 [Example 28] | 18.9 µM |  | 
Cn1ccnc1SCCCCCOc1ccc(OCCCCC(C)(C)C(N)=O)cc1 [Example 30] | 2.3 µM | 60.9% | 
CC(C)(CCCCOc1ccc(OCCCCCSc2ccncc2)cc1)C(N)=O [Example 31] | 2.6 µM | 48.9% | 
CCOC(=O)C(C)(C)CCCCOc1ccc(OCCCCCSc2ncnc3[nH]cnc23)cc1 [Example 32] | 2.2 µM | 57.5% | 
CCOC(=O)C(C)(C)CCCCOc1ccc(OCCCCCSc2nnc(N)s2)cc1 [Example 33] | 7.7 µM | 59.5% | 
Cn1nnnc1SCCCCCOc1ccc(OCCCCC(C)(C)C(N)=O)cc1 [Example 34] | 4 µM |  | 
CCOC(=O)C(C)(C)CCCCOc1ccc(OCCCCCOc2ccccn2)cc1 [Example 35, ethyl 6-[p-[5-(2-pyridyloxy)pentyloxy]phenoxy]-2,2-dimethylhexanoate] | 8.6 µM | 35.9% | 
CCOC(=O)C(C)(C)CCCCOc1ccc(OCCCCCn2cnc3ccccc32)cc1 [Example 36] | 3.8 µM |  | 
CCOC(=O)C(C)(C)CCCCOc1cccc(OCCCCCn2ccnc2)c1 [Example 37] | 4.6 µM |  | 
CCOC(=O)C(C)(C)CCCCOc1ccc(OCCCCCn2cnc3cncnc32)cc1 [Example 39] | 4.1 µM |  | 
CCOC(=O)C(C)(C)CCCCOc1ccc(OCCCCCOc2ccccc2-c2ccccc2)cc1 [Example 40] |  | 46.9% | 
CCOC(=O)C(C)(C)CCCCOc1ccc(OCCCCCOc2ccncc2)cc1 [Example 41] | 7.4 µM | 38.7% | 
CCOC(=O)C(C)(C)CCCCSc1nnc(SCCCCCn2ccnc2)s1 [Example 42, ethyl 6-[2-[5-(1-imidazolyl)pentylthio)-1,3,4-thiadiazol-5-ylthio]-2,2-dimethylhexanoate] | 4.4 µM |  | inhibition in vivo at 50 mg/kg (Ehrlich solid tumor; 50 mg/kg): 53.1%
CCOC(=O)C(C)(C)CCCCOc1ccc(OCCCCCSc2nc3ncccc3[nH]2)cc1 [Example 43, ethyl 6-[p-[5-(1H-imidazo[4,5-b]pyridin-2-ylthio)pentyloxy]phenoxy]-2,2-dimethylhexanoate] | 8 µM | 55.5% | 
CNC(=O)C(C)(C)CCCCOc1ccc(OCCCCCn2ccnc2)cc1 [Example 49, 6-[p-[5-(1-imidazolyl)pentyloxy]phenoxy]-2,2-dimethylhexanoic acid methylamide] | 5.5 µM |  | 
CN(C)C(=O)C(C)(C)CCCCOc1ccc(OCCCCCn2ccnc2)cc1 [Example 50] | 1.8 µM |  | 
